Test results reported in patent US5464819A, “Physiologically active peptide having immunoregulatory activities” (priority 1990, dated 1995).
Ends that are not written are not given here.

Tests used:
Toxoplasma strain RH [1] = assay: Activity to inhibit multiplication of Toxoplasma in canine monocytes; assay type: cell-based, Toxoplasma gondii; conditions: Obio-2 0.05 mg/ml, canine monocyte cell
Description: (§1) In the present invention, the activity to inhibit multiplication of Toxoplasma is evaluated by two characteristics, i.e. "percentage of cells containing Toxoplasma" and "Toxoplasma growth inhibitory factor activity (hereinafter referred to as "Toxo-GIF activity")". These characteristics are measured according to the methods described in Nagasawa, H., et.al., Jpn. J. Vet. Sci., vol. 43, pages 307-319, 1981 and Sakurai, H., et.al., Jpn. J. Trop. Med. Hyg., vol. 10, pages 183-195, 1982.
On the other hand, in the preparation of canine monocytes, 5 ml of blood is collected from cervical vein as a peripheral blood, and 0.05% of heparin is added. This blood is subjected to fractionation according to the Conray 400-Ficoll method (see Tsuji, H., Men-eki Jikken Sosaho (Procedure for Immunological Tests), 4th ed., Immunocells I-4, pages 443-446, published by Maeda Printing Co., Ltd., in 1979) to thereby obtain a mononuclear cell fraction. The obtained mononuclear cell fraction is subjected to centrifugation (800×G, 5 min., 4° C.) with HBSS and then with 10%-HICS-Tc199 culture medium, and suspended in 10%-HICS-Tc199 culture medium in a concentration of about 1×10^6 cells/mi. The resultant cell suspension is portionwise poured, 1 ml each, into the above-mentioned culture wells, which are covered by a circular cover glass having a diameter of 15 mm, and cultured in a 5% CO2 -incubator. The culturing is effected for 12 hours, and each of the culture wells is gently rinsed with HBSS three times, followed by cultivation overnight in the CO2 -incubator, to thereby form a canine monocyte monolayer on the cover glass.
Each of the above-obtained monolayers is again rinsed with 10%-HICS-Tc199 culture medium, and inoculated with 1×10^5 tachyzoites of Toxoplasma strain RH per 1×10^6 mouse macrophages or canine monocytes so that the macrophages are infected thereby. […]
A 10%-HICS-Tc199 culture medium containing a peptide sample is applied to the cover glass in an amount of 1 ml per 1×10^6 cells for both of the mouse macrophages and the canine monocytes, followed by cultivation for 48 hours, and then stained with May-Grunwald-Giemsa to thereby count the number of Toxoplasma organisms in the cells. […] From the data obtained on all of the five visual fields, an average value and a standard deviation are calculated to determine the percentage of cells containing Toxoplasma.
The Toxo-GIF activity, which is another activity useful for evaluating the activity to inhibit multiplication of Toxoplasma, is defined as a proportion of decrease of Toxoplasma (Tp)-containing cells (in percentage) attributed to the addition of a peptide sample, expressed by percentage, and calculated according to the following formula: Toxo-GIF Activity (%)= [formula] […]
(§2) The effect of the No. 5 peptide (Obio-2) is evaluated.

[2] = system: Methylcholanthrene induced tumor (MC tumor); assay: Effect of peptide injection on tumor multiplication in Methylcholanthrene induced tumor (MC tumor)-bearing mouse; assay type: in vivo; conditions: 28 days after inoculation with MC tumor cells; 30 μg/mouse intramuscularly every week; control 432±10.5
Description: (§3) Methylcholanthrene induced tumor cells excised from an MC induced tumor lump of a BALB/c mouse having, injected thereto, 0.5 mg of 20-Methylcholanthrene (manufactured and sold by Wako Pure Chemical Industries Ltd.), are suspended in RPMI-1640 culture medium, thereby obtaining a cell suspension of 2×10^7 cells/ml. 0.025 ml (5×10^5 MC tumor cells/mouse) of the cell suspension is intramuscularly injected under the skin on the back of a 6-week-old male mouse to inoculate the mouse with MC-tumor cells, thereby obtaining a tumor-bearing mouse.
(§4) Each of Obio-2 and Obio-3 is intramuscularly injected in an amount of 30 μg/mouse under the skin on the back of the mouse every week after the injection of the above MC tumor cell suspension to evaluate the inhibitory effect thereof on the multiplication of the tumor. Five tumor-bearing mice are employed for each test, and an average is taken.

Toxoplasma strain RH [3] = assay: Activity to inhibit multiplication of Toxoplasma in human myocardial cells (Giardi Heart cell); assay type: cell-based, Toxoplasma gondii; conditions: Obio-2 0.05 mg/ml
Description: as §1
(§5) The cells are suspended in MEM-M culture medium containing 10% of heat-inactivated calf serum at a concentration of 1×10^6 cells/mi. This cell suspension is portionwise poured, 1 ml each, into culture wells (multidish-tray, FB-16-24-TC, manufactured and sold by Limblo Chemical Co., U.S.A.), which are covered by a circular cover glass having a diameter of 15 mm, and cultured in a 5% CO2 -incubator overnight to thereby obtain a cell monolayer (a human myocardial cell monolayer and a human cerebral cell monolayer) on the cover glass.
(§6) The obtained cell monolayer is rinsed with MEM-M culture medium, and inoculated with 1×10^5 tachyzoites of Toxoplasma strain RH per 1×10^6 cells with respect to each of the human myocardial cells and the human brain cells. Free Toxoplasma organisms having not penetrated into the cells are removed by washing with HBSS one hour after the inoculation.
(§7) An MEM-M culture medium containing a peptide sample is applied to the cover glass in an amount of 1 ml per 1×10^6 cells, followed by cultivation for 48 hours, and then stained with May-Grunwald-Giemsa to thereby count the number of Toxoplasma organisms in the cells. The percentage of cells containing Toxoplasma organisms is determined in the same manner as described above for mouse macrophages.
(§8) The Toxo-GIF activity, which is another activity useful for evaluating the activity to inhibit multiplication of Toxoplasma, is defined as a proportion of decrease of Toxoplasma (Tp)-containing cells (in percentage) attributed to the addition of a peptide sample, expressed by percentage, and calculated according to the following formula: Toxo-GIF Activity (%)= [formula]
as §2

[4] = system: mononuclear cells in spleen; assay: Number of mononuclear cells in spleen and histopathology of MC tumor-bearing mouse; assay type: in vivo; conditions: for Bleeding colonies at the tumor tissue portions (histopathological findings): MC tumor-bearing mice, large bleeding colonies in uninjected mice; for Spleen mononuclear cell count in tumor-bearing mice relative to normal mice: spleen mononuclear cells, saline 0.10; for Spleen mononuclear cell count in tumor-bearing mice relative to normal mice / Number of mononuclear cells per mouse: MC tumor-bearing mouse; for Number of mononuclear cells per mouse: spleen, 30 μg once a week, normal mouse 13.0 × 10^7, saline 1.3 × 10^7
Description: as §3, §4
On the other hand, the number of mononuclear cells in the spleen of tumor-bearing mice injected with Obio-2 and Obio-3 experience only a slight decrease, and retains as large a number as 65 to 70% of that of normal mice. In the histopathological findings of these spleens, no significant change is observed in the spleen follicles of both the tumor-bearing mouse groups injected with Obio-2 and Obio-3 and the tumor-bearing mouse group injected with none of them. However, in the mouse groups injected with Obio-2 and Obio-3, small mononuclear cells (small lymphocytes) and large monocytes in the spleen red marrow conspicuously gather in the mallow, especially around the vessels, whereas the control mouse group not injected with the peptide has only small lymphocytes in the marrow.

Toxoplasma strain RH [5] = assay: Activity to inhibit multiplication of Toxoplasma (percentage of cells containing Toxoplasma, Toxo-GIF activity, cytotoxicity) in mouse peritoneal macrophages; assay type: cell-based, Toxoplasma gondii
Description: as §1
An adult BALB/c female mouse is intraperitoneally injected with 1 ml of a sterilized saline containing 0.2% of glycogen, and, 5 days later, the peritoneal cavity of the mouse is washed with cold Hank's balanced salt solution (hereinafter referred to as "HBSS"), thereby taking up peritoneal exudate cells. These cells are washed by centrifugation at 250×G for 5 min twice, and suspended in Tc199 culture medium containing 10% of heat-inactivated calf serum (hereinafter referred to as "10%-HICS-Tc199 culture medium", see Igaku No Ayumi (Progress in Medicine), 62, No. 6, published on Aug. 5, 1967) in a concentration of 1×10^6 cells/mi. This cell suspension is portionwise poured, 1 ml each, into culture wells (Multidish-tray, FB-16-24-TC, manufactured and sold by Limblo Chemical Co., U.S.A.), which are covered by a circular cover glass having a diameter of 15 mm, and cultured in a 5% CO2 -incubator. In order to remove contaminating erythrocytes and lymphocytes, each of the culture wells is gently rinsed with HBSS three times at intervals of 2 hours, and then cultivated overnight in the CO2 -incubator to thereby form a mouse macrophage monolayer on the cover glass.
Each of the above-obtained monolayers is again rinsed with 10%-HICS-Tc199 culture medium, and inoculated with 1×10^5 tachyzoites of Toxoplasma strain RH per 1×10^6 mouse macrophages or canine monocytes so that the macrophages are infected thereby. Free Toxoplasma organisms having not penetrated into the cells are removed by washing with HBSS one hour after the inoculation.
(§9) A 10%-HICS-Tc199 culture medium containing a peptide sample is applied to the cover glass in an amount of 1 ml per 1×10^6 cells for both of the mouse macrophages and the canine monocytes, followed by cultivation for 48 hours, and then stained with May-Grunwald-Giemsa to thereby count the number of Toxoplasma organisms in the cells. Within a certain visual field on the cover glass, 100 cells are checked to count the number of cells which contain no Toxoplasma, the number of cells which contain one to five Toxoplasm organisms and the number of cells which contain 6 or more Toxoplasma organisms, and the count results are expressed by percentage. Similar checking and counting are performed within four other visual fields on the cover glass. From the data obtained on all of the five visual fields, an average value and a standard deviation are calculated to determine the percentage of cells containing Toxoplasma.
As a peptide sample, use is made of one obtained by dissolving a powdery peptide in 3 ml of 10%-HICS-Tc199 culture medium and then filtering and sterilizing the resultant solution through a membrane filter having a pore size of 0.46 μm. […]
The thus obtained crude Obioactin is fractionated by DEAE-5PW column (manufactured and sold by Tosoh Co., Japan) having an inside diameter of 21.5 mm and a length of 15 cm by NaCl concentration gradient ion exchange chromatography in which a concentration gradient of NaCl from 0M to 1M is made in 0.02M ammonium acetate as a basic solution. Each of the fractions is lyophilized, desalted by gel filtration through Sephadex G-15 (trade name of a gel manufactured and sold by Pharmacia Fine Chemicals Co., Sweden) and lyophilized again.

Toxoplasma = assay: Toxo-GIF activity of synthetic peptides used singly and in combination (host cells not stated); assay type: cell-based, Toxoplasma gondii; conditions: total mg/ml: Obio-1 0.49, Obio-2 0.50, Obio-3 0.45, Obio-1+Obio-2 0.49, Obio-1+Obio-3 0.46, Obio-2+Obio-3 0.47
Description: as §1, §9, §8

Toxoplasma strain RH [6] = assay: Activity to inhibit multiplication of Toxoplasma in human cerebral cells (Flow 3000 cell); assay type: cell-based, Toxoplasma gondii; conditions: Obio-2 0.05 mg/ml
Description: as §1, §5, §6, §7, §8, §2

[7] = Obio-2 0.05 mg/ml, mouse macrophage
[8] = synthetic peptide 0.7 mM, mouse peritoneal macrophages

Row | Substance | Average tumor area [2] [mm^2] | Bleeding colonies at the tumor tissue portions (histopathological findings) [4] | Spleen mononuclear cell count in tumor-bearing mice relative to normal mice [4] | Number of mononuclear cells per mouse [4] | Percentage of cells containing Toxoplasma (Tp): 0 Tp (Toxoplasma strain RH [5]; [8]) [%] | Percentage of cells containing Toxoplasma (Tp): 1-5 Tp (Toxoplasma strain RH [5]; [8]) [%] | Percentage of cells containing Toxoplasma (Tp): ≥6 Tp/cell (Toxoplasma strain RH [5]; [8]) [%] | Toxo-GIF (Toxoplasma strain RH [5]; [8]) [%] | Percentage of cells containing Toxoplasma (Tp): 0 Tp (Toxoplasma) [%] | Percentage of cells containing Toxoplasma (Tp): 1-5 Tp (Toxoplasma) [%] | Percentage of cells containing Toxoplasma (Tp): ≥6 Tp/cell (Toxoplasma) [%] | Toxo-GIF (Toxoplasma) [%] | further results
1 | AEEPVV [peptide No. 5] | 208±40.1 | no apparent bleeding colonies | 0.64 | 8.3 × 10^7 | 64.4 ± 9.3 | 32.8 ± 8.8 | 2.8 ± 1.1 | 61.6 | 69.6 ± 11.5 | 24.0 ± 9.1 | 6.4 ± 2.7 | 63.1 | Percentage of cells containing Toxoplasma (Tp): 0 Tp (Toxoplasma strain RH [1]): 80.5 ± 6.4%; Percentage of cells containing Toxoplasma (Tp): 1-5 Tp (Toxoplasma strain RH [1]): 12.8 ± 5.4%; Percentage of cells containing Toxoplasma (Tp): ≥6 Tp/cell (Toxoplasma strain RH [1]): 6.7 ± 3.3%; Toxo-GIF (Toxoplasma strain RH [1]): 67.4%; Percentage of cells containing Toxoplasma (Tp): 0 Tp (Toxoplasma strain RH [3]): 80.7 ± 6.1%; Percentage of cells containing Toxoplasma (Tp): 1-5 Tp (Toxoplasma strain RH [3]): 10.6 ± 3.4%; Percentage of cells containing Toxoplasma (Tp): ≥6 Tp/cell (Toxoplasma strain RH [3]): 8.7 ± 2.1%; Toxo-GIF (Toxoplasma strain RH [3]): 57.7%; Concentration at which Toxo-GIF activity becomes appreciable / sufficient activity is detected (Toxoplasma strain RH [5]): 0.25 mg/mL; Percentage of cells containing Toxoplasma (Tp): 0 Tp (Toxoplasma strain RH [5]; [7]): 88.4 ± 7.6%; Percentage of cells containing Toxoplasma (Tp): 1-5 Tp (Toxoplasma strain RH [5]; [7]): 7.0 ± 4.5%; Percentage of cells containing Toxoplasma (Tp): ≥6 Tp/cell (Toxoplasma strain RH [5]; [7]): 4.6 ± 4.2%; Toxo-GIF (Toxoplasma strain RH [5]; [7]): 50.4%; Percentage of cells containing Toxoplasma (Tp): 0 Tp (Toxoplasma strain RH [6]): 75.4 ± 7.4%; Percentage of cells containing Toxoplasma (Tp): 1-5 Tp (Toxoplasma strain RH [6]): 12.6 ± 6.8%; Percentage of cells containing Toxoplasma (Tp): ≥6 Tp/cell (Toxoplasma strain RH [6]): 2.1 ± 1.9%; Toxo-GIF (Toxoplasma strain RH [6]): 78.2%
2 | GAEEPVV [peptide No. 6] | 219±40.1 | no apparent bleeding colonies | 0.72 | 9.1 × 10^7 | 55.2 ± 6.2 | 36.2 ± 8.6 | 8.6 ± 4.4 | 51.7 | 59.7 ± 15.8 | 29.5 ± 11.0 | 10.8 ± 7.1 | 51.1 | 
